Bounds are passed on as bounds.

The target of assay [1] is Urokinase-type plasminogen activator (Homo sapiens, UniProt P00749). As to the kind of experiment: Inhibitory activity against human urokinase plasminogen activator expressed as dissociation constant.
In the next assay the target is Coagulation factor X (Bos taurus, UniProt P00743). As to the kind of experiment: Inhibitory activity against bovine coagulation factor X expressed as dissociation constant.
The target in the next assay is Prothrombin (Bos taurus, UniProt P00735). As to the kind of experiment: Inhibitory activity against bovine thrombin expressed as dissociation constant.
In a further assay the target is T1, Serine protease 1 (Bos taurus, UniProt P00760).
T1 sequence (P00760 whole entry): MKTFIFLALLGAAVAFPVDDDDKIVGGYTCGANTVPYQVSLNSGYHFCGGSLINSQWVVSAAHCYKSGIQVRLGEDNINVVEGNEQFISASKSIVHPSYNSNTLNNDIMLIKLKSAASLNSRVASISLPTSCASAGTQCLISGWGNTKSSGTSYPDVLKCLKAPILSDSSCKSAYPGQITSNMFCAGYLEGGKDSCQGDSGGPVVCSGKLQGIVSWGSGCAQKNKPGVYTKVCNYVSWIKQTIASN
In words: Inhibitory activity against bovine trypsin expressed as dissociation constant.

The target of assay [2] is Tissue-type plasminogen activator (Homo sapiens, UniProt P00750). In words: Inhibitory activity against human tissue-type plasminogen activator expressed as dissociation constant.
Chain of Tissue-type plasminogen activator (P00750 whole entry): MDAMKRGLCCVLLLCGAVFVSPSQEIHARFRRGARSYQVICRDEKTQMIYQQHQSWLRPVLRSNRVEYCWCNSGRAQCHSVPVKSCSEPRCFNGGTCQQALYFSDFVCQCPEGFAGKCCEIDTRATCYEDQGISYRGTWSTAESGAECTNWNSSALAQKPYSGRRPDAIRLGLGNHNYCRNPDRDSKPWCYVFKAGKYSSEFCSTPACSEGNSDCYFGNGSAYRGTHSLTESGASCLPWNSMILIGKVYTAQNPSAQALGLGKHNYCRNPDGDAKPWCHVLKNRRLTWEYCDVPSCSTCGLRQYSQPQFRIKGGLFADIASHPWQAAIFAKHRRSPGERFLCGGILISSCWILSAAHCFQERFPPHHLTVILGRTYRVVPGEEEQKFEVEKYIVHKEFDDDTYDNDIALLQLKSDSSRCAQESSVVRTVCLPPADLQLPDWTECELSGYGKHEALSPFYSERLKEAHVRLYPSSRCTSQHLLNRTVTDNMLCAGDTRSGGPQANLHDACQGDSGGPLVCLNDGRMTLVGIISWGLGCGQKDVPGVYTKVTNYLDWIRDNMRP

Chain of Coagulation factor X (P00743 41-180 limits assumed): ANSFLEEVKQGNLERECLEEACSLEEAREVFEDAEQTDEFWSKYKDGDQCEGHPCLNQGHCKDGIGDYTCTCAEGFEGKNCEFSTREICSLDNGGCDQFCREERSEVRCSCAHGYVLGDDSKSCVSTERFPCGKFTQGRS
Chain of Coagulation factor X (P00743 234-492 limits assumed): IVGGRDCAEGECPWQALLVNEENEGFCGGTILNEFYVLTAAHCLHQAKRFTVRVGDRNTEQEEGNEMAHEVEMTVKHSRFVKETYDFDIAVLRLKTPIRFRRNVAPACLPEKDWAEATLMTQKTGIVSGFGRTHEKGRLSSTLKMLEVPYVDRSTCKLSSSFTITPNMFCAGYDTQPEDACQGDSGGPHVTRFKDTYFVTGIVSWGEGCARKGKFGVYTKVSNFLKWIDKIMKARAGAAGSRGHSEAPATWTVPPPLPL

Take `N=C(N)c1cccc(CC(NS(=O)(=O)c2ccc3ccccc3c2)C(=O)N2CCCCC2)c1` (configuration not stated): the Ki (in general, a dissociation constant, usually derived from enzyme kinetics or from competition with a known ligand) in assay [1] was found to be 38 µM.
On the same count and under the same terms, for `N=C(N)c1cccc(CC(NS(=O)(=O)c2ccc3ccccc3c2)C(=O)N2CCN(c3ccccc3)CC2)c1` (configuration not stated) the value was 41 µM.
Consider `CC1CCN(C(=O)C(Cc2cccc(C(=N)N)c2)NS(=O)(=O)c2c(C(C)C)cc(C(C)C)cc2C(C)C)CC1` (configuration not stated), for which the Ki at Coagulation factor X was 2 µM; at Prothrombin, 0.075 µM; in assay [1] it was 2 µM.
For `CC(C)c1cc(C(C)C)c(S(=O)(=O)NC(Cc2cccc(C(N)N)c2)C(=O)N2CCN(C(=O)OCc3ccccc3)CC2)c(C(C)C)c1` (configuration not stated), the Ki at Coagulation factor X is 2.7 µM; at Prothrombin, 1.1 µM; in assay [1], 1.4 µM; on Serine protease 1 it was 0.2 µM; in assay [2] it was 0.95 µM.
Regarding `CC1CCN(C(=O)C(Cc2cccc(C(=N)N)c2)NC(=O)OC(C)(C)C)CC1` (configuration not stated), the values for the Ki (on Coagulation factor X; in assay [1]) were 64 µM and 56 µM, respectively.
Turning to `COC(=O)C1CCCN(C(=O)C(Cc2cccc(C(=N)N)c2)NS(=O)(=O)c2ccc3ccccc3c2)C1` (configuration not stated), the figures for the Ki (at Coagulation factor X; on Prothrombin; in assay [1]) were 18 µM, 0.15 µM and 26 µM, respectively.
Take `COC(=O)C(Cc1cccc(C(N)N)c1)NC(=O)CNS(=O)(=O)c1ccc(C)cc1` (configuration not stated): the Ki worked out at 3.9 µM on Prothrombin, 78 µM in assay [1], 5.7 µM on Serine protease 1 and 23 µM in assay [2].
Regarding `CC1CCCN(C(=O)C(Cc2cccc(C(=N)N)c2)NS(=O)(=O)c2ccc3ccccc3c2)C1` (configuration not stated), the inhibitory constant (Ki) worked out at 32 µM at Coagulation factor X, 0.13 µM at Prothrombin, 35 µM in assay [1] and 0.53 µM on Serine protease 1.
For the compound `CC(C)c1cc(C(C)C)c(S(=O)(=O)NC(Cc2cccc(C(N)N)c2)C(=O)N2CCCC(C(=O)NCc3ccccc3)C2)c(C(C)C)c1` (configuration not stated), the Ki is 2.5 µM on Coagulation factor X; 1.8 µM at Prothrombin; 1.6 µM in assay [1]; 0.46 µM at Serine protease 1; 0.98 µM in assay [2].
In the case of `N=C(N)c1cccc(CC(NS(=O)(=O)c2ccc3ccccc3c2)C(=O)N2CCNCC2)c1` (configuration not stated), the Ki in assay [1] worked out at 48 µM.
For `CNC(=O)C(Cc1cccc(C(N)N)c1)NC(=O)CNS(=O)(=O)c1ccc2ccccc2c1` (configuration not stated), the Ki on Coagulation factor X is 3 µM; at Prothrombin, 9.6 µM; in assay [1] it was over 1000 µM; on Serine protease 1 it was 9.2 µM; in assay [2] it was 69 µM.
As to `NC(N)c1ccc(CC(NC(=O)CNS(=O)(=O)c2ccc3ccccc3c2)C(=O)N2CCCCC2)cc1` (configuration not stated), the figures for the Ki (at Prothrombin; in assay [1]; in assay [2]) were 0.006 µM, over 1000 µM and 70 µM, respectively.
`COC(=O)C1CCN(C(=O)C(Cc2cccc(C(=N)N)c2)NS(=O)(=O)c2ccc3ccccc3c2)CC1` (configuration not stated): the inhibition constant (Ki) on Coagulation factor X turned out to be 43 µM; on Prothrombin it was 0.017 µM; in assay [1], 9.3 µM.
As to `Cc1ccc(S(=O)(=O)NC(Cc2cccc(C(N)N)c2)C(=O)N2CCCCC2)cc1` (configuration not stated), the Ki at Coagulation factor X stood at 15 µM; on Prothrombin it was 0.34 µM; in assay [1] it was 55 µM; in assay [2], 120 µM.
In the case of `CC1CCN(C(=O)C(Cc2cccc(C(=N)N)c2)NS(=O)(=O)c2cccc3ccccc23)CC1` (configuration not stated), the Ki amounted to 42 µM on Coagulation factor X and 34 µM in assay [1].
On to `CCOC(=O)N1CCN(C(=O)C(Cc2cccc(C(N)N)c2)NS(=O)(=O)c2c(C(C)C)cc(C(C)C)cc2C(C)C)CC1` (configuration not stated), for which the Ki worked out at 1.7 µM at Coagulation factor X; 0.49 µM at Prothrombin; 0.41 µM in assay [1]; 0.037 µM on Serine protease 1; 0.57 µM in assay [2].
In the case of `CC1CCN(C(=O)C(Cc2cccc(C(=N)N)c2)NS(=O)(=O)c2ccc3c(c2)C(=O)c2ccccc2C3=O)CC1` (configuration not stated), the Ki is 2.3 µM on Coagulation factor X and 40 µM in assay [1].
For `CCOC(=O)C1CCN(C(=O)C(Cc2cccc(C(=N)N)c2)NS(=O)(=O)c2ccc3ccccc3c2)CC1` (configuration not stated), the Ki was found to be 18 µM on Coagulation factor X; 0.22 µM on Prothrombin; 4.5 µM in assay [1]; 0.0084 µM at Serine protease 1; 24 µM in assay [2].
For `NC(N)c1ccc(/C=C2\CCCC/C(=C\c3ccc(C(N)N)cc3)C2=O)cc1`, in that order: 0.013 µM, 0.32 µM, 3.4 µM, 0.09 µM and 0.035 µM.
Consider `CC1CCN(C(=O)C(N)Cc2cccc(C(=N)N)c2)CC1` (configuration not stated), for which the Ki on Coagulation factor X came out at 230 µM; in assay [1], 800 µM.
Taken in the same sequence, the figures for `Cc1cc(C)c(S(=O)(=O)NC(Cc2cccc(C(=N)N)c2)C(=O)N2CCC(C)CC2)c(C)c1` (configuration not stated) were 95 µM and 16 µM.
For `Cc1ccc(S(=O)(=O)NC(Cc2cccc(C(=N)N)c2)C(=O)N2CCC(C)CC2)cc1` (configuration not stated), in that order: 71 µM and 25 µM.
As for `CC(C)OC(=O)C(Cc1cccc(C(N)N)c1)NC(=O)CNS(=O)(=O)c1ccc2ccccc2c1` (configuration not stated), the Ki turned out to be 0.24 µM on Coagulation factor X; 1.2 µM on Prothrombin; 49 µM in assay [1]; 3.7 µM at Serine protease 1; 33 µM in assay [2].
`CC1CCN(C(=O)C(Cc2cccc(C(=N)N)c2)NS(=O)(=O)c2ccc3ccccc3c2)CC1` (configuration not stated) registered a Ki in assay [1] of 31 µM.
In the case of `N=C(N)c1ccccc1` [BENZAMIDINE], the Ki at Coagulation factor X was determined as 160 µM; at Prothrombin it was 890 µM.

The values above are taken from ChEMBL document CHEMBL1131451, “Structural and functional analyses of benzamidine-based inhibitors in complex with trypsin: implications for the inhibition of factor Xa, tPA, and urokinase” (J Med Chem, 1998).
